The values below come from patent US12371464B2, “Polypeptides and uses thereof” (MEDIMMUNE LIMITED, priority 2020, dated 2025).

Numbered stars: 1 amine (or outer) side, 2 acyl side, 3 side chain; on linkers, the order of the positions; unused ones are H or OH. Bridge positions count the residues as written; N and C are the ends. Square brackets hold non-standard residues; d marks the D form. Side chains are listed from the residue outwards. Peptide text beside a SMILES is read from it. * marks the point of attachment. C18 diacid = O=C(O)CCCCCCCCCCCCCCCCC(=O)*; γGlu = O=C(O)[C@H](CCC(=O)[*:2])N[*:1]; αMeF = C[C@](N)(Cc1ccccc1)C(=O)O; AEEA = NCCOCCOCC(=O)O; Aib = CC(C)(N)C(=O)O Where only a bound is given, the exact number is not on record here.

This data set can be described thus: Thioflavin T fibrillation assay. Format: physicochemical. To be noted: for Time taken to detect increase in fluorescence intensity: 1 mg/mL in 25 mM sodium acetate buffer pH 4.0, 37° C., 6 days, orbital shaking, >144 h = no increase; for fibril-forming tendency on conjugating pramlintide to a lipid: as seen in Table 7. From the text: Peptide aggregation that form fibrils is an indication of physical instability. Fibril formation in solution poses a significant risk for the stability of injectable peptide drug products. Thioflavin T (ThT) fibrillation assay is a useful tool to assess the aggregation kinetics of a peptide or protein under accelerated and stressed conditions that can be used to forecast the long-term viability of a compound in solution. ThT can selectively bind amyloid fibrils and the resultant complex emits strong fluorescence signal at 482 nm when excited at 450 nm (Anal Biochem. 1989 March; 177 (2): 244-9). Monitoring of the change in fluorescence signal is an established method to study the fibril forming potential of peptides and proteins. ThT (purchased from Sigma Aldrich) stock solution is prepared by dissolving the ThT powder in Milli-Q water and filtered to obtain a 0.25 mM solution. The concentration of the solution is measured at 412 nm using an extinction coefficient of 36 mM-1 cm-1. Test peptides were dissolved at 1 mg/mL in 25 mM sodium acetate buffer pH 4.0. 100 μL aliquot of peptide solution and 5 μL aliquot of ThT solution were placed in a clear bottom black fluorescence 96-well plate. 5 replicates of each test samples were placed in the same row of the plate. Buffer was placed in control wells for baseline correction. All empty wells were filled with water to prevent evaporation. The plate was sealed with aluminium seal and placed in fluorescence plate reader and incubated for 6 days at 37° C. with intermittent orbital shaking at 500 to 750 rpm. The fluorescence intensity was measured every 30 min using excitation at 444 nm and emission at 480 nm. The fibril forming potential of the test peptides was determined by measuring the average time taken to detect an increase in baseline corrected fluorescence intensity.

Take `CC[C@H](C)[C@H](NC(=O)[C@@H]1CCCN1C(=O)CNC(=O)[C@H](Cc1ccccc1)NC(=O)[C@H](CC(N)=O)NC(=O)C(C)(C)NC(=O)[C@H](CO)NC(=O)[C@H](CO)NC(=O)[C@H](Cc1c[nH]cn1)NC(=O)[C@H](CCCNC(=N)N)NC(=O)[C@H](CC(C)C)NC(=O)[C@H](Cc1ccccc1)NC(=O)[C@H](CC(N)=O)NC(=O)[C@H](C)NC(=O)[C@H](CC(C)C)NC(=O)[C@H](CCCNC(=N)N)NC(=O)[C@H](CCC(N)=O)NC(=O)[C@@H](NC(=O)[C@H](C)NC(=O)[C@@H]1CSSC[C@H](NC(=O)[C@@H](N)CCCCNC(=O)CC[C@H](NC(=O)CCCCCCCCCCCCCCCCC(=O)O)C(=O)O)C(=O)N[C@@H](CC(N)=O)C(=O)N[C@@H]([C@@H](C)O)C(=O)N[C@@H](C)C(=O)N[C@@H]([C@@H](C)O)C(=O)N1)[C@@H](C)O)C(=O)N[C@@H](CC(C)C)C(=O)N1CCC[C@H]1C(=O)N1CCC[C@H]1C(=O)N[C@H](C(=O)N[C@@H](CCC(=O)O)C(=O)N[C@H](C(=O)NCC(=O)N[C@@H](CO)C(=O)N[C@@H](CC(N)=O)C(=O)N[C@H](C(=O)N[C@@H](Cc1ccc(O)cc1)C(N)=O)[C@@H](C)O)C(C)C)[C@@H](C)O` [Peptide 44, K(γE-C18diacid)[CNTATC]ATQRLANFLRHSS(Aib)NFGPILPPTEVGSNTY-amide] (H-K([γGlu-C18 diacid])CNTATCATQRLANFLRHSS[Aib]NFGPILPPTEVGSNTY-NH2; disulfide 2-7; N-terminus assumed): the “Time taken to detect increase in fluorescence intensity” value (“Time taken to detect increase” below) is >144 h. With `CC[C@H](C)[C@H](NC(=O)[C@@H]1CCCN1C(=O)CNC(=O)[C@H](Cc1ccccc1)NC(=O)[C@H](CC(N)=O)NC(=O)[C@H](CC(N)=O)NC(=O)[C@H](CO)NC(=O)[C@H](CO)NC(=O)[C@H](Cc1c[nH]cn1)NC(=O)[C@@H](NC(=O)[C@H](CC(C)C)NC(=O)[C@H](Cc1ccccc1)NC(=O)[C@H](CC(N)=O)NC(=O)[C@H](C)NC(=O)[C@H](CC(C)C)NC(=O)[C@H](CCCNC(=N)N)NC(=O)[C@H](CCC(N)=O)NC(=O)[C@@H](NC(=O)[C@H](C)NC(=O)[C@@H]1CSSC[C@H](NC(=O)[C@H](CCCCN)NC(=O)CNC(=O)CNC(=O)CNC(=O)CC[C@H](NC(=O)CC[C@H](NC(=O)CCCCCCCCCCCCCCCCC(=O)O)C(=O)O)C(=O)O)C(=O)N[C@@H](CC(N)=O)C(=O)N[C@@H]([C@@H](C)O)C(=O)N[C@@H](C)C(=O)N[C@@H]([C@@H](C)O)C(=O)N1)[C@@H](C)O)C(C)C)C(=O)N[C@@H](CC(C)C)C(=O)N1CCC[C@H]1C(=O)N1CCC[C@H]1C(=O)N[C@H](C(=O)N[C@@H](CC(N)=O)C(=O)N[C@H](C(=O)NCC(=O)N[C@@H](CO)C(=O)N[C@@H](CC(N)=O)C(=O)N[C@H](C(=O)N[C@@H](Cc1ccc(O)cc1)C(N)=O)[C@@H](C)O)C(C)C)[C@@H](C)O` [Peptide 4] ({C18 diacid-γGlu-γGlu}-GGGKCNTATCATQRLANFLVHSSNNFGPILPPTNVGSNTY-NH2; disulfide 5-10), the “Time taken to detect increase” value is <5 h and the “fibril-forming tendency on conjugating pramlintide to a lipid” value was “increases the fibril-forming tendency”.

Take `CC[C@H](C)[C@H](NC(=O)[C@@H]1CCCN1C(=O)CNC(=O)[C@H](Cc1ccccc1)NC(=O)[C@H](CC(N)=O)NC(=O)[C@H](CC(N)=O)NC(=O)[C@H](CO)NC(=O)[C@H](CO)NC(=O)[C@H](Cc1c[nH]cn1)NC(=O)[C@@H](NC(=O)[C@H](CC(C)C)NC(=O)[C@H](Cc1ccccc1)NC(=O)[C@H](CC(N)=O)NC(=O)[C@H](C)NC(=O)[C@H](CC(C)C)NC(=O)[C@H](CCCNC(=N)N)NC(=O)[C@H](CCC(N)=O)NC(=O)[C@@H](NC(=O)[C@H](C)NC(=O)[C@@H]1CSSC[C@H](NC(=O)[C@@H](N)CCCCNC(=O)COCCOCCNC(=O)COCCOCCNC(=O)CC[C@H](NC(=O)CCCCCCCCCCCCCCCCC(=O)O)C(=O)O)C(=O)N[C@@H](CC(N)=O)C(=O)N[C@@H]([C@@H](C)O)C(=O)N[C@@H](C)C(=O)N[C@@H]([C@@H](C)O)C(=O)N1)[C@@H](C)O)C(C)C)C(=O)N[C@@H](CC(C)C)C(=O)N1CCC[C@H]1C(=O)N1CCC[C@H]1C(=O)N[C@H](C(=O)N[C@@H](CC(N)=O)C(=O)N[C@H](C(=O)NCC(=O)N[C@@H](CO)C(=O)N[C@@H](CC(N)=O)C(=O)N[C@H](C(=O)N[C@@H](Cc1ccc(O)cc1)C(N)=O)[C@@H](C)O)C(C)C)[C@@H](C)O` [Peptide 6] (H-K([AEEA-AEEA-γGlu-C18 diacid])CNTATCATQRLANFLVHSSNNFGPILPPTNVGSNTY-NH2; disulfide 2-7; N-terminus assumed): the “Time taken to detect increase” value was found to be 15 h and the “fibril-forming tendency on conjugating pramlintide to a lipid” value is “increases the fibril-forming tendency”. As for `CC[C@H](C)[C@H](NC(=O)[C@@H]1CCCN1C(=O)CNC(=O)[C@](C)(Cc1ccccc1)NC(=O)[C@H](CC(N)=O)NC(=O)[C@H](CC(N)=O)NC(=O)[C@H](CO)NC(=O)[C@H](CO)NC(=O)[C@H](Cc1c[nH]cn1)NC(=O)[C@H](CCCNC(=N)N)NC(=O)[C@H](CC(C)C)NC(=O)[C@H](Cc1ccccc1)NC(=O)[C@H](CCC(=O)O)NC(=O)[C@H](C)NC(=O)[C@H](CC(C)C)NC(=O)[C@H](CCCNC(=N)N)NC(=O)[C@H](CCC(N)=O)NC(=O)[C@@H](NC(=O)[C@H](C)NC(=O)[C@@H]1CSSC[C@H](NC(=O)[C@@H](N)CCCCNC(=O)CC[C@H](NC(=O)CC[C@H](NC(=O)CCCCCCCCCCCCCCCCC(=O)O)C(=O)O)C(=O)O)C(=O)N[C@@H](CC(N)=O)C(=O)N[C@@H]([C@@H](C)O)C(=O)N[C@@H](C)C(=O)N[C@@H]([C@@H](C)O)C(=O)N1)[C@@H](C)O)C(=O)N[C@@H](CC(C)C)C(=O)N1CCC[C@H]1C(=O)N1CCC[C@H]1C(=O)N[C@H](C(=O)N[C@@H](CC(N)=O)C(=O)N[C@H](C(=O)NCC(=O)N[C@@H](CO)C(=O)N[C@@H](CC(N)=O)C(=O)N[C@H](C(=O)N[C@@H](Cc1ccc(O)cc1)C(N)=O)[C@@H](C)O)C(C)C)[C@@H](C)O` [Peptide 11, K(γE-γE-C18diacid)[CNTATC]ATQRLAEFLRHSSNN(αMePhe)GPILPPTNVGSNTY-amide] (H-K([γGlu-γGlu-C18 diacid])CNTATCATQRLAEFLRHSSNN[αMeF]GPILPPTNVGSNTY-NH2; disulfide 2-7; N-terminus assumed), the “Time taken to detect increase” value was >144 h. Consider `CC[C@H](C)[C@H](NC(=O)[C@@H]1CCCN1C(=O)CNC(=O)[C@](C)(Cc1ccccc1)NC(=O)[C@H](CC(N)=O)NC(=O)[C@H](CC(N)=O)NC(=O)[C@H](CO)NC(=O)[C@H](CO)NC(=O)[C@H](Cc1c[nH]cn1)NC(=O)[C@H](CCCNC(=N)N)NC(=O)[C@H](CC(C)C)NC(=O)[C@H](Cc1ccccc1)NC(=O)[C@H](CC(N)=O)NC(=O)[C@H](C)NC(=O)[C@H](CC(C)C)NC(=O)[C@H](CCCNC(=N)N)NC(=O)[C@H](CCC(N)=O)NC(=O)[C@@H](NC(=O)[C@H](C)NC(=O)[C@@H]1CSSC[C@H](NC(=O)[C@@H](N)CCCCNC(=O)CC[C@H](NC(=O)CCCCCCCCCCCCCCCCC(=O)O)C(=O)O)C(=O)N[C@@H](CC(N)=O)C(=O)N[C@@H]([C@@H](C)O)C(=O)N[C@@H](C)C(=O)N[C@@H]([C@@H](C)O)C(=O)N1)[C@@H](C)O)C(=O)N[C@@H](CC(C)C)C(=O)N1CCC[C@H]1C(=O)N1CCC[C@H]1C(=O)N[C@H](C(=O)N[C@@H](CC(N)=O)C(=O)N[C@H](C(=O)NCC(=O)N[C@@H](CO)C(=O)N[C@@H](CC(N)=O)C(=O)N[C@H](C(=O)N[C@@H](Cc1ccc(O)cc1)C(N)=O)[C@@H](C)O)C(C)C)[C@@H](C)O` [Peptide 19, K(γE-C18diacid)[CNTATC]ATQRLANFLRHSSNN(αMePhe)GPILPPTNVGSNTY-amide] (H-K([γGlu-C18 diacid])CNTATCATQRLANFLRHSSNN[αMeF]GPILPPTNVGSNTY-NH2; disulfide 2-7; N-terminus assumed), for which the “Time taken to detect increase” value is listed as >144 h. The same measure, in the same setting: with `CC[C@H](C)[C@H](NC(=O)[C@@H]1CCCN1C(=O)CNC(=O)[C@H](Cc1ccccc1)NC(=O)[C@H](CC(N)=O)NC(=O)C(C)(C)NC(=O)[C@H](CO)NC(=O)[C@H](CO)NC(=O)[C@H](Cc1c[nH]cn1)NC(=O)[C@H](CCCNC(=N)N)NC(=O)[C@H](CC(C)C)NC(=O)[C@H](Cc1ccccc1)NC(=O)[C@H](CC(N)=O)NC(=O)[C@H](C)NC(=O)[C@H](CC(C)C)NC(=O)[C@H](CCCNC(=N)N)NC(=O)[C@H](CCC(N)=O)NC(=O)[C@@H](NC(=O)[C@H](C)NC(=O)[C@@H]1CSSC[C@H](NC(=O)[C@H](CCCCN)NC(=O)[C@@H](N)CCCCNC(=O)CC[C@H](NC(=O)CC[C@H](NC(=O)CCCCCCCCCCCCCCCCC(=O)O)C(=O)O)C(=O)O)C(=O)N[C@@H](CC(N)=O)C(=O)N[C@@H]([C@@H](C)O)C(=O)N[C@@H](C)C(=O)N[C@@H]([C@@H](C)O)C(=O)N1)[C@@H](C)O)C(=O)N[C@@H](CC(C)C)C(=O)N1CCC[C@H]1C(=O)N1CCC[C@H]1C(=O)N[C@H](C(=O)N[C@@H](CC(N)=O)C(=O)N[C@H](C(=O)NCC(=O)N[C@@H](CO)C(=O)N[C@@H](CC(N)=O)C(=O)N[C@H](C(=O)N[C@@H](Cc1ccc(O)cc1)C(N)=O)[C@@H](C)O)C(C)C)[C@@H](C)O` [Peptide 66, K(γE-γE-C18diacid)K[CNTATC]ATQRLANFLRHSS(Aib)NFGPILPPTNVGSNTY-amide] (H-K([γGlu-γGlu-C18 diacid])KCNTATCATQRLANFLRHSS[Aib]NFGPILPPTNVGSNTY-NH2; disulfide 3-8; N-terminus assumed) the figure was >144 h.
